Values after ≈ are worked out from the molar mass of the structure shown. Active and inactive are the calls of the source. The calls are words filed in the database; no cut-off is given here.
What follows are compounds tested on Cryptococcus neoformans (assay: Antifungal activity against Cryptococcus neoformans assessed as growth inhibition after 96 hr by agar dilution method). Conditions: not given.
Type: functional

Structure (SMILES)	MIC
Clc1ccc(OCc2ccccc2COc2ccc(Cl)c3cccnc23)c2ncccc12	inactive
Cc1ccc2cccc(OCc3ccccc3COc3cccc4ccc(C)nc34)c2n1	inactive
c1ccc(COc2cccc3cccnc23)c(COc2cccc3cccnc23)c1	inactive

The compounds below were run on Shigella dysenteriae (assay: Antibacterial activity against Shigella dysenteriae 15 assessed as growth inhibition at MIC after 24 hr by agar dilution method). Conditions: not given.
Type: functional

Structure (SMILES)	diameter of the inhibition zone (DIZ) [mm]
Clc1ccc(OCc2ccccc2COc2ccc(Cl)c3cccnc23)c2ncccc12	6
Cc1ccc2cccc(OCc3ccccc3COc3cccc4ccc(C)nc34)c2n1	8
c1ccc(COc2cccc3cccnc23)c(COc2cccc3cccnc23)c1	6.5

Each compound was assayed on Candida albicans (assay: Antifungal activity against Candida albicans assessed as growth inhibition after 96 hr by agar dilution method). Conditions: not given.
Type: functional

Structure (SMILES)	MIC
Clc1ccc(OCc2ccccc2COc2ccc(Cl)c3cccnc23)c2ncccc12	1500 mg/L (≈ 3250 µM)
Cc1ccc2cccc(OCc3ccccc3COc3cccc4ccc(C)nc34)c2n1	inactive
c1ccc(COc2cccc3cccnc23)c(COc2cccc3cccnc23)c1	inactive

What follows are compounds tested on Micrococcus luteus (assay: Antibacterial activity against Micrococcus luteus ATCC 9341 assessed as growth inhibition at MIC after 24 hr by agar dilution method). Conditions: not given.
Type: functional

Structure (SMILES)	diameter of the inhibition zone (DIZ) [mm]
Clc1ccc(OCc2ccccc2COc2ccc(Cl)c3cccnc23)c2ncccc12	6.5
Cc1ccc2cccc(OCc3ccccc3COc3cccc4ccc(C)nc34)c2n1	7
c1ccc(COc2cccc3cccnc23)c(COc2cccc3cccnc23)c1	7

These compounds were tested on Escherichia coli (assay: Antibacterial activity against Escherichia coli 319 assessed as growth inhibition at MIC after 24 hr by agar dilution method). Conditions: not given.
Type: functional

Structure (SMILES)	diameter of the inhibition zone (DIZ)
Clc1ccc(OCc2ccccc2COc2ccc(Cl)c3cccnc23)c2ncccc12	6.5 mm
Cc1ccc2cccc(OCc3ccccc3COc3cccc4ccc(C)nc34)c2n1	inactive
c1ccc(COc2cccc3cccnc23)c(COc2cccc3cccnc23)c1	inactive

The compounds below were run on Bacillus pumilus (assay: Antibacterial activity against Bacillus pumilus 11778 assessed as growth inhibition after 24 hr by agar dilution method). Conditions: Bacillus pumilus, 11778, 24 h.
Type: functional

Structure (SMILES)	MIC [mg/L]
Clc1ccc(OCc2ccccc2COc2ccc(Cl)c3cccnc23)c2ncccc12	32 (≈ 69.4 µM)
Cc1ccc2cccc(OCc3ccccc3COc3cccc4ccc(C)nc34)c2n1	> 500
c1ccc(COc2cccc3cccnc23)c(COc2cccc3cccnc23)c1	500 (≈ 1270 µM)

What follows are compounds tested on Pseudomonas aeruginosa (assay: Antibacterial activity against Pseudomonas aeruginosa 71 assessed as growth inhibition after 24 hr by agar dilution method). Conditions: Pseudomonas aeruginosa, 71, 24 h.
Type: functional

Structure (SMILES)	MIC [mg/L]
Clc1ccc(OCc2ccccc2COc2ccc(Cl)c3cccnc23)c2ncccc12	64 (≈ 139 µM)
Cc1ccc2cccc(OCc3ccccc3COc3cccc4ccc(C)nc34)c2n1	> 500
c1ccc(COc2cccc3cccnc23)c(COc2cccc3cccnc23)c1	> 500

These compounds were tested on Micrococcus luteus (assay: Antibacterial activity against Micrococcus luteus ATCC 9341 assessed as growth inhibition after 24 hr by agar dilution method). Conditions: ATCC 9341, 24 h.
Type: functional

Structure (SMILES)	MIC [mg/L]
Clc1ccc(OCc2ccccc2COc2ccc(Cl)c3cccnc23)c2ncccc12	32 (≈ 69.4 µM)
Cc1ccc2cccc(OCc3ccccc3COc3cccc4ccc(C)nc34)c2n1	128 (≈ 304 µM)
c1ccc(COc2cccc3cccnc23)c(COc2cccc3cccnc23)c1	> 500

What follows are compounds tested on Shigella dysenteriae (assay: Antibacterial activity against Shigella dysenteriae 15 assessed as growth inhibition after 24 hr by agar dilution method). Conditions: Shigella dysenteriae, 15, 24 h.
Type: functional

Structure (SMILES)	MIC [mg/L]
Clc1ccc(OCc2ccccc2COc2ccc(Cl)c3cccnc23)c2ncccc12	64 (≈ 139 µM)
Cc1ccc2cccc(OCc3ccccc3COc3cccc4ccc(C)nc34)c2n1	32 (≈ 76.1 µM)
c1ccc(COc2cccc3cccnc23)c(COc2cccc3cccnc23)c1	32 (≈ 81.5 µM)

These compounds were tested on Staphylococcus aureus (assay: Antibacterial activity against Staphylococcus aureus 29737 assessed as growth inhibition after 24 hr by agar dilution method). Conditions: Staphylococcus aureus, 29737, 24 h.
Type: functional

Structure (SMILES)	MIC [mg/L]
Clc1ccc(OCc2ccccc2COc2ccc(Cl)c3cccnc23)c2ncccc12	128 (≈ 277 µM)
Cc1ccc2cccc(OCc3ccccc3COc3cccc4ccc(C)nc34)c2n1	128 (≈ 304 µM)
c1ccc(COc2cccc3cccnc23)c(COc2cccc3cccnc23)c1	32 (≈ 81.5 µM)

These compounds were tested on Klebsiella pneumoniae (assay: Antibacterial activity against Klebsiella pneumoniae J/I/4 assessed as growth inhibition after 24 hr by agar dilution method). Conditions: J/I/4, 24 h.
Type: functional

Structure (SMILES)	MIC [mg/L]
Clc1ccc(OCc2ccccc2COc2ccc(Cl)c3cccnc23)c2ncccc12	> 500
Cc1ccc2cccc(OCc3ccccc3COc3cccc4ccc(C)nc34)c2n1	32 (≈ 76.1 µM)
c1ccc(COc2cccc3cccnc23)c(COc2cccc3cccnc23)c1	32 (≈ 81.5 µM)

The compounds below were run on Staphylococcus aureus (assay: Antibacterial activity against Staphylococcus aureus 29737 assessed as growth inhibition at MIC after 24 hr by agar dilution method). Conditions: not given.
Type: functional

Structure (SMILES)	diameter of the inhibition zone (DIZ) [mm]
Clc1ccc(OCc2ccccc2COc2ccc(Cl)c3cccnc23)c2ncccc12	7
Cc1ccc2cccc(OCc3ccccc3COc3cccc4ccc(C)nc34)c2n1	6
c1ccc(COc2cccc3cccnc23)c(COc2cccc3cccnc23)c1	7.2

These compounds were tested on Vibrio cholerae (assay: Antibacterial activity against Vibrio cholerae 759 assessed as growth inhibition after 24 hr by agar dilution method). Conditions: Vibrio cholerae, 759, 24 h.
Type: functional

Structure (SMILES)	MIC [mg/L]
Clc1ccc(OCc2ccccc2COc2ccc(Cl)c3cccnc23)c2ncccc12	32 (≈ 69.4 µM)
Cc1ccc2cccc(OCc3ccccc3COc3cccc4ccc(C)nc34)c2n1	64 (≈ 152 µM)
c1ccc(COc2cccc3cccnc23)c(COc2cccc3cccnc23)c1	> 500

Each compound was assayed on Candida tropicalis (assay: Antifungal activity against Candida tropicalis assessed as growth inhibition after 96 hr by agar dilution method). Conditions: not given.
Type: functional

Structure (SMILES)	MIC
Clc1ccc(OCc2ccccc2COc2ccc(Cl)c3cccnc23)c2ncccc12	1000 mg/L (≈ 2170 µM)
Cc1ccc2cccc(OCc3ccccc3COc3cccc4ccc(C)nc34)c2n1	2000 mg/L (≈ 4760 µM)
c1ccc(COc2cccc3cccnc23)c(COc2cccc3cccnc23)c1	inactive

What follows are compounds tested on Cryptococcus neoformans (assay: Antifungal activity against Cryptococcus neoformans assessed as growth inhibition at MIC after 96 hr by agar dilution method). Conditions: not given.
Type: functional

Structure (SMILES)	diameter of the inhibition zone (DIZ)
Clc1ccc(OCc2ccccc2COc2ccc(Cl)c3cccnc23)c2ncccc12	inactive
Cc1ccc2cccc(OCc3ccccc3COc3cccc4ccc(C)nc34)c2n1	inactive
c1ccc(COc2cccc3cccnc23)c(COc2cccc3cccnc23)c1	inactive

The compounds below were run on Escherichia coli (assay: Antibacterial activity against Escherichia coli 319 assessed as growth inhibition at MIC). Conditions: TDE = time-dependent effect.
Type: functional, organism-based

Structure (SMILES)	growth inhibition (GI)
Clc1ccc(OCc2ccccc2COc2ccc(Cl)c3cccnc23)c2ncccc12	tde

Each compound was assayed on Vibrio cholerae (assay: Antibacterial activity against Vibrio cholerae 759 assessed as growth inhibition at MIC after 24 hr by agar dilution method). Conditions: not given.
Type: functional

Structure (SMILES)	diameter of the inhibition zone (DIZ)
Clc1ccc(OCc2ccccc2COc2ccc(Cl)c3cccnc23)c2ncccc12	7 mm
Cc1ccc2cccc(OCc3ccccc3COc3cccc4ccc(C)nc34)c2n1	8 mm
c1ccc(COc2cccc3cccnc23)c(COc2cccc3cccnc23)c1	inactive

These compounds were tested on Aspergillus niger (assay: Antifungal activity against Aspergillus niger assessed as growth inhibition after 96 hr by agar dilution method). Conditions: not given.
Type: functional

Structure (SMILES)	MIC
Clc1ccc(OCc2ccccc2COc2ccc(Cl)c3cccnc23)c2ncccc12	1000 mg/L (≈ 2170 µM)
Cc1ccc2cccc(OCc3ccccc3COc3cccc4ccc(C)nc34)c2n1	1000 mg/L (≈ 2380 µM)
c1ccc(COc2cccc3cccnc23)c(COc2cccc3cccnc23)c1	inactive

These compounds were tested on Pseudomonas aeruginosa (assay: Antibacterial activity against Pseudomonas aeruginosa 71 assessed as growth inhibition at MIC after 24 hr by agar dilution method). Conditions: not given.
Type: functional

Structure (SMILES)	diameter of the inhibition zone (DIZ)
Clc1ccc(OCc2ccccc2COc2ccc(Cl)c3cccnc23)c2ncccc12	7.5 mm
Cc1ccc2cccc(OCc3ccccc3COc3cccc4ccc(C)nc34)c2n1	inactive
c1ccc(COc2cccc3cccnc23)c(COc2cccc3cccnc23)c1	6 mm

Each compound was assayed on Escherichia coli (assay: Antibacterial activity against Escherichia coli 319 assessed as growth inhibition after 24 hr by agar dilution method). Conditions: Escherichia coli, 319, 24 h.
Type: functional

Structure (SMILES)	MIC [mg/L]
Clc1ccc(OCc2ccccc2COc2ccc(Cl)c3cccnc23)c2ncccc12	32 (≈ 69.4 µM)
Cc1ccc2cccc(OCc3ccccc3COc3cccc4ccc(C)nc34)c2n1	> 1000
c1ccc(COc2cccc3cccnc23)c(COc2cccc3cccnc23)c1	> 500

The compounds below were run on Klebsiella pneumoniae (assay: Antibacterial activity against Klebsiella pneumoniae J/I/4 assessed as growth inhibition at MIC after 24 hr by agar dilution method). Conditions: not given.
Type: functional

Structure (SMILES)	diameter of the inhibition zone (DIZ)
Clc1ccc(OCc2ccccc2COc2ccc(Cl)c3cccnc23)c2ncccc12	inactive
Cc1ccc2cccc(OCc3ccccc3COc3cccc4ccc(C)nc34)c2n1	8 mm
c1ccc(COc2cccc3cccnc23)c(COc2cccc3cccnc23)c1	8 mm

These compounds were tested on Candida albicans (assay: Antifungal activity against Candida albicans assessed as growth inhibition at MIC after 96 hr by agar dilution method). Conditions: not given.
Type: functional

Structure (SMILES)	diameter of the inhibition zone (DIZ)
Clc1ccc(OCc2ccccc2COc2ccc(Cl)c3cccnc23)c2ncccc12	7 mm
Cc1ccc2cccc(OCc3ccccc3COc3cccc4ccc(C)nc34)c2n1	inactive
c1ccc(COc2cccc3cccnc23)c(COc2cccc3cccnc23)c1	inactive

These compounds were tested on Candida tropicalis (assay: Antifungal activity against Candida tropicalis assessed as growth inhibition at MIC after 96 hr by agar dilution method). Conditions: not given.
Type: functional

Structure (SMILES)	diameter of the inhibition zone (DIZ)
Clc1ccc(OCc2ccccc2COc2ccc(Cl)c3cccnc23)c2ncccc12	9 mm
Cc1ccc2cccc(OCc3ccccc3COc3cccc4ccc(C)nc34)c2n1	7 mm
c1ccc(COc2cccc3cccnc23)c(COc2cccc3cccnc23)c1	inactive

Each compound was assayed on Aspergillus niger (assay: Antifungal activity against Aspergillus niger assessed as growth inhibition at MIC after 96 hr by agar dilution method). Conditions: not given.
Type: functional

Structure (SMILES)	diameter of the inhibition zone (DIZ)
Clc1ccc(OCc2ccccc2COc2ccc(Cl)c3cccnc23)c2ncccc12	7.5 mm
Cc1ccc2cccc(OCc3ccccc3COc3cccc4ccc(C)nc34)c2n1	9 mm
c1ccc(COc2cccc3cccnc23)c(COc2cccc3cccnc23)c1	inactive

The compounds below were run on Bacillus pumilus (assay: Antibacterial activity against Bacillus pumilus 11778 assessed as growth inhibition at MIC after 24 hr by agar dilution method). Conditions: not given.
Type: functional

Structure (SMILES)	diameter of the inhibition zone (DIZ)
Clc1ccc(OCc2ccccc2COc2ccc(Cl)c3cccnc23)c2ncccc12	6 mm
Cc1ccc2cccc(OCc3ccccc3COc3cccc4ccc(C)nc34)c2n1	7 mm
c1ccc(COc2cccc3cccnc23)c(COc2cccc3cccnc23)c1	inactive

— ChEMBL document CHEMBL3046627, “Synthesis and in vitro study of antibacterial, antifungal activities of some novel bisquinolines” (2013)
